In the NIST ThermoML archive (doi:10.1016/j.jct.2012.12.001):
± gives the expanded uncertainty stated by the source.

Test: heat capacity at constant pressure per volume; xn = mol fraction of the nth substance listed
Settings: 101 kPa, Liquid, DSC, x2 = 0.713

CCCCCCCCCCCCCCCCCC [octadecane] + N#Cc1ccccc1
Settings | heat capacity [J/K/m3]
315.57 K | 1733800 ± 20000
315.76 K | 1733400 ± 20000
315.95 K | 1733200 ± 20000
316.14 K | 1733100 ± 20000
316.33 K | 1732700 ± 20000
316.52 K | 1732000 ± 20000
316.71 K | 1731600 ± 20000
316.9 K | 1731300 ± 20000
317.09 K | 1731000 ± 20000
317.28 K | 1730800 ± 20000
317.47 K | 1730300 ± 20000
317.66 K | 1730100 ± 20000
317.85 K | 1730000 ± 20000
318.03 K | 1729900 ± 20000
318.22 K | 1729800 ± 20000
318.41 K | 1729400 ± 20000
318.6 K | 1729300 ± 20000
318.79 K | 1729200 ± 20000
318.98 K | 1729000 ± 20000
319.17 K | 1728800 ± 20000
319.36 K | 1728600 ± 20000
319.55 K | 1728600 ± 20000
319.74 K | 1728300 ± 20000
319.93 K | 1728200 ± 20000
320.12 K | 1728000 ± 20000
320.31 K | 1728000 ± 20000
320.5 K | 1728000 ± 20000
320.68 K | 1728000 ± 20000
320.87 K | 1727900 ± 20000
321.06 K | 1727600 ± 20000
321.25 K | 1727500 ± 20000
321.44 K | 1727400 ± 20000
321.63 K | 1727200 ± 20000
321.82 K | 1727200 ± 20000
322.01 K | 1727300 ± 20000
322.2 K | 1727200 ± 20000
322.39 K | 1726900 ± 20000
322.58 K | 1726600 ± 20000
322.76 K | 1726900 ± 20000
322.95 K | 1726900 ± 20000
323.14 K | 1726800 ± 20000
323.33 K | 1726700 ± 20000
323.52 K | 1726500 ± 20000
323.71 K | 1726800 ± 20000
323.9 K | 1726900 ± 20000
324.09 K | 1726700 ± 20000
324.28 K | 1726700 ± 20000
324.47 K | 1726600 ± 20000
324.66 K | 1726600 ± 20000
324.85 K | 1726700 ± 20000
325.04 K | 1726500 ± 20000
325.23 K | 1726500 ± 20000
325.41 K | 1726500 ± 20000
325.6 K | 1726500 ± 20000
325.79 K | 1726500 ± 20000
325.98 K | 1726300 ± 20000
326.17 K | 1726400 ± 20000
326.36 K | 1726600 ± 20000
326.55 K | 1726500 ± 20000
326.74 K | 1726700 ± 20000
326.93 K | 1726700 ± 20000
327.12 K | 1726400 ± 20000
327.31 K | 1726600 ± 20000
327.5 K | 1726500 ± 20000
327.69 K | 1726700 ± 20000
327.87 K | 1726500 ± 20000
328.06 K | 1726500 ± 20000
328.25 K | 1726700 ± 20000
328.44 K | 1726900 ± 20000
328.63 K | 1726600 ± 20000
328.82 K | 1726700 ± 20000
329.01 K | 1726800 ± 20000
329.2 K | 1726900 ± 20000
329.39 K | 1726800 ± 20000
329.58 K | 1726700 ± 20000
329.77 K | 1726700 ± 20000
329.95 K | 1726800 ± 20000
330.14 K | 1726900 ± 20000
330.33 K | 1726900 ± 20000
330.52 K | 1726800 ± 20000
330.71 K | 1727000 ± 20000
330.9 K | 1727000 ± 20000
331.09 K | 1727200 ± 20000
331.28 K | 1727300 ± 20000
331.47 K | 1727100 ± 20000
331.66 K | 1727200 ± 20000
331.85 K | 1727200 ± 20000
332.04 K | 1727200 ± 20000
332.23 K | 1727200 ± 20000
332.42 K | 1727100 ± 20000
332.61 K | 1727100 ± 20000
332.79 K | 1727400 ± 20000
332.98 K | 1727300 ± 20000
333.17 K | 1727400 ± 20000
333.36 K | 1727300 ± 20000
333.55 K | 1727600 ± 20000
333.74 K | 1728000 ± 20000
333.93 K | 1727700 ± 20000
334.12 K | 1727800 ± 20000
334.31 K | 1727700 ± 20000
334.5 K | 1727900 ± 20000
334.69 K | 1728100 ± 20000
334.88 K | 1728200 ± 20000
335.06 K | 1728100 ± 20000
335.25 K | 1728100 ± 20000
335.44 K | 1728300 ± 20000
335.63 K | 1728300 ± 20000
335.82 K | 1728600 ± 20000
336.01 K | 1729000 ± 20000
336.2 K | 1729000 ± 20000
336.39 K | 1728800 ± 20000
336.58 K | 1729000 ± 20000
336.77 K | 1729100 ± 20000
336.96 K | 1729000 ± 20000
337.15 K | 1729000 ± 20000
337.34 K | 1729200 ± 20000
337.52 K | 1729100 ± 20000
337.71 K | 1729200 ± 20000
337.9 K | 1729200 ± 20000
338.09 K | 1729300 ± 20000
338.28 K | 1729700 ± 20000
338.47 K | 1729900 ± 20000
338.66 K | 1729900 ± 20000
338.85 K | 1729600 ± 20000
339.04 K | 1730200 ± 20000
339.23 K | 1730200 ± 20000
339.42 K | 1730600 ± 20000
339.61 K | 1730700 ± 20000
339.8 K | 1730900 ± 20000
339.99 K | 1730600 ± 20000
340.17 K | 1730800 ± 20000
340.36 K | 1730700 ± 20000
340.55 K | 1730900 ± 20000
340.74 K | 1731100 ± 20000
340.93 K | 1730900 ± 20000
341.12 K | 1730900 ± 20000
341.31 K | 1731200 ± 20000
341.5 K | 1731200 ± 20000
